In test [1] the test system is S2. Kind of test: Induction of luciferase protein trans-splicing in Drosophila melanogaster S2 cells transfected with N-luc and C-luc assessed as increase in luciferase activity at 100 nM after 4 hrs by Western blot analysis. The class given is functional, cell-based. (In general: Immunoblotting shows a protein as a band on a membrane.)
For test [2], the system named is S2. Kind of test: Induction of luciferase protein trans-splicing in Drosophila melanogaster S2 cells transfected with N-luc and C-luc assessed as increase in luciferase activity after 4 hrs by Western blot analysis. In kind it is functional, cell-based.
Test [3] deals with S2. Put plainly: Induction of luciferase protein trans-splicing in Drosophila melanogaster S2 cells transfected with N-luc C1A mutant and C-luc N45A mutant assessed as increase in luciferase activity at 100 nM after 4 hrs by Western blot analysis. The class given is functional, cell-based.
In test [4] the test system is S2. Kind of test: Induction of luciferase protein trans-splicing in Drosophila melanogaster S2 cells transfected with N-luc and C-luc assessed as increase in luciferase activity at 100 nM after 4 hrs at 25 degC. In kind it is functional, cell-based.
Test [5] is described as follows: Induction of luciferase protein trans-splicing in Drosophila melanogaster S2 cells transfected with N-luc and C-luc assessed as increase in luciferase activity at 100 nM after 4 hrs at 21 degC relative to control. In kind it is functional.
The nature of test [6]: Induction of luciferase protein trans-splicing in Drosophila melanogaster S2 cells transfected with N-luc and C-luc assessed as increase in luciferase activity at 100 nM after 4 hrs at 28 degC relative to control. The class given is functional.
Test [7] is described as follows: Induction of luciferase protein trans-splicing in Drosophila melanogaster S2 cells transfected with N-luc and C-luc and FRB assessed as increase in luciferase activity at 100 nM after 4 hrs relative to control. The class given is functional.
Test [8] in a line: Induction of luciferase protein trans-splicing in Drosophila melanogaster S2 cells transfected with N-luc and C-luc and 2 copies of FRB assessed as increase in luciferase activity at 100 nM after 4 hrs relative to control. The class given is functional.
Test [9] is described as follows: Induction of luciferase protein trans-splicing in Drosophila melanogaster S2 cells transfected with N-luc and C-luc and 3 copies of FRB assessed as increase in luciferase activity at 100 nM after 4 hrs relative to control. The class given is functional.
Test [10] relates to S2. Put plainly: Induction of luciferase protein trans-splicing in Drosophila melanogaster S2 cells transfected with N-luc and C-lucFRB2 assessed as increase in luciferase activity at 100 nM after 4 hrs. In kind it is functional, cell-based. The note with it: TDE = time-dependent effect.
In test [11] the test system is S2. Kind of test: Induction of luciferase protein trans-splicing in Drosophila melanogaster S2 cells transfected with N-luc and C-lucFRB2 assessed as increase in luciferase activity pretreated with ascomycin for 15 mins measured at 100 nM after 4 hrs. In kind it is functional, cell-based.
In test [12] the test system is S2. Kind of test: Induction of luciferase protein trans-splicing in Drosophila melanogaster S2 cells transfected with N-luc and C-lucFRB2 assessed as increase in luciferase activity pretreated with ascomycin for 60 mins measured at 100 nM after 4 hrs. In kind it is functional, cell-based.
Test [13] has as its system Drosophila melanogaster. Kind of test: Activation of luciferase in Drosophila melanogaster containing genomically integrated luciferase CPS at 100 uM. In kind it is functional, organism-based.
In test [14] the test system is Drosophila melanogaster. Kind of test: Activation of luciferase in Drosophila melanogaster containing genomically integrated luciferase CPS at 100 uM by Western blot method. The class given is functional, organism-based.

The source made the active and inactive calls. The calls are words filed in the database; no cut-off is given here.

`CO[C@H]1[C@@H](O)[C@H](C)C[C@H](C)/C=C/C=C/C=C(\C)[C@@H](c2c[nH]c3c(C)cccc23)C[C@@H]2CC[C@@H](C)[C@@](O)(O2)C(=O)C(=O)N2CCCC[C@H]2C(=O)O[C@H]([C@H](C)C[C@@H]2CC[C@@H](O)[C@H](OC)C2)C[C@H](O)[C@H](C)/C=C(\C)[C@H]1O`: the outcome in the test with S2 [1] was inactive.

Regarding `CO[C@H]1C[C@@H]2CC[C@@H](C)[C@@](O)(O2)C(=O)C(=O)N2CCCC[C@H]2C(=O)O[C@H]([C@H](C)C[C@@H]2CC[C@@H](O)[C@H](OC)C2)CC(=O)[C@H](C)/C=C(\C)[C@@H](O)[C@@H](OC)C(=O)[C@H](C)C[C@H](C)/C=C/C=C/C=C/1C` [SIROLIMUS], the outcome with S2 [1], in the test with S2 [4], in the test with Drosophila melanogaster [13] and with Drosophila melanogaster [14] was Active. The Activity result in the test on S2 [2] was “Dose-dependent effect”; in the test with S2 [10], “tde”. Moreover, the result in the test with S2 [3], in the test on S2 [11] and with S2 [12] was inactive. Besides, the Ratio in [5] is listed as 6; in test [6], 22; in [7] it was 15; in test [8], 50; in [9], 75.

The record behind these values is ChEMBL document CHEMBL1221195, “Post-translational enzyme activation in an animal via optimized conditional protein splicing” (2007).
